Key:
Type in all cases: cell-based
[1] = tested on: parental and DR cell lines (PC3 and DU145); experiment: Cytotoxic activity in parental and DR prostate cancer cell lines; settings: for cytotoxic activity (anti-cancer effects): general statement; for cytotoxicity compared with the other compounds of the ten: in vitro cytotoxicity and anti-proliferative data in docetaxel resistant PCa cell lines; for cell viability: parental and DR cell lines (PC3 and DU145)
Description: Out of the initial ten compounds, two target-to-hit specific ligands were identified, BT-768 and BT-772, from the diazaborine-based pharmacophore group and 2-Chloro substituted acetamide derivatives. BT-768 and BT-772 were selected for further studies based on their in vitro cytotoxicity and anti-proliferative data in docetaxel resistant PCa cell lines (see FIG. 3A and FIG. 3B, and FIG. 4A and FIG. 4B). […] The boron-based ligands BT-768 and BT-772 cytotoxic activity in parental and DR cell lines (PC3 and DU145) were then measured.
(§1) FIG. 3A and FIG. 3B, for example, are graphical representations of 3-(4,5-dimethylthiazol-2-yl)-2,5-diphenyl-2H-tetrazolium bromide MTT assay-based dose response curve for the ligand BT-772. FIG. 3A and FIG. 3B represent the average of three independent experiments in triplicates normalized to untreated control assays. As shown in FIG. 3A and FIG. 3B, cell viability was measured by MTT assay. In FIG. 3A, PC3 and PC3-DR cells were treated with increasing concentrations of BT-772 for twenty-four hours.
(§2) In FIG. 3B, DU145 and DU145-DR cells were treated with increasing concentrations of BT-772 for twenty-four hours.

[2] = tested on: PC3-DR (taxane resistant variant of PC3); experiment: MTT assay cell viability, PC3-DR; settings: PC3-DR cells, twenty-four hours, read-out: IC50 (drug concentration causing 50% inhibition), cytotoxic activity
Description: (§3) FIG. 3A is a graphical representation of 3-(4,5-dimethylthiazol-2-yl)-2,5-diphenyl-2H-tetrazolium bromide (MTT) assay-based dose response curve for the ligand BT-772 in the PC3 prostate cancer cell line and its taxane resistant variant PC3-DR, in accordance with an embodiment of the disclosure.
as §1

DU145-DR cells = experiment: Clonogenic assay, DU145-DR; settings: DU145-DR cells growing as colonies
Procedure: (§4) FIG. 4B is a photographic image of a clonogenic assay-based dose response for the ligand BT-772 in the DU145 and DU145-DR cell lines, in accordance with an embodiment of the disclosure.
(§5) FIG. 4A and FIG. 4B, for example, show images of clonogenic assays, used primarily to determine cancer cell colony formation capacity and proliferation. In FIG. 4A, PC3 and PC3-DR cells were grown at low density in 6-well plates and allowed to form clones for 10 days.
(§6) In FIG. 4B, DU145 and DU145-DR cells growing as colonies were treated with low micromolar concentrations of BT-772 and clonogenicity was noticeable inhibited at concentrations above 3 μM in DU145 cells and at concentrations above 1 μM in DU145-DR cells.

DU145 cells = experiment: Clonogenic assay, DU145; settings: DU145 cells growing as colonies
Procedure: as §4, §5, §6

[3] = tested on: DU145-DR (taxane resistant variant of DU145); experiment: MTT assay cell viability, DU145-DR; settings: Homo sapiens, DU-145, DU145-DR cells, twenty-four hours, read-out: IC50, cytotoxic activity
Description: (§7) FIG. 3B is a graphical representation of 3-(4,5-dimethylthiazol-2-yl)-2,5-diphenyl-2H-tetrazolium bromide MTT assay-based dose response curve for the ligand BT-772 in the DU145 prostate cancer cell line and its taxane resistant variant DU145-DR, in accordance with an embodiment of the disclosure.
as §1, §2

[4] = tested on: DU145 prostate cancer cell line; experiment: MTT assay cell viability, DU145; settings: Homo sapiens, DU-145, DU145 cells, twenty-four hours, read-out: IC50, cytotoxic activity
Description: as §7, §1, §2

PC3-DR cells = experiment: Clonogenic assay, PC3-DR; settings: 6-well plates, 10 days
Procedure: FIG. 4A is a photographic image of a clonogenic assay-based dose response for the ligand BT-772 in the PC3 and PC3-DR cell lines, in accordance with an embodiment of the disclosure.
as §5

[5] = tested on: PC3 prostate cancer cell line; experiment: MTT assay cell viability, PC3; settings: Homo sapiens, PC-3, PC3 cells, twenty-four hours, read-out: IC50 (drug concentration causing 50% inhibition), cytotoxic activity
Description: as §3, §1

Structure (SMILES)	cytotoxic activity (anti-cancer effects) [1]	cytotoxicity compared with the other compounds of the ten [1]	cell viability [1]	IC50 [2]	concentration above which clonogenicity was noticeably inhibited (DU145-DR cells)	concentration above which clonogenicity was noticeably inhibited (DU145 cells)	IC50 [3]	IC50 [4]	concentration above which clonogenicity was noticeably inhibited (PC3-DR cells)	IC50 [5]
N#Cc1ccc(B2Nc3ccccc3-c3nc4ccccc4n32)s1 [BT-768, 5-(benzo[e]benzo[4,5]imidazo[1,-c][1,3,2]diazaborinin-6 (5H)-yl)thiopene-2-carbonitrile]	low μM cytotoxic activity	higher cytotoxic than the other eight compounds	dose-dependent reduction in cell viability							
Cc1ccc(CN(C(=O)CCl)c2cccc(B3OC(C)(C)C(C)(C)O3)c2)cc1 [BT-772, 2-chloro-N-(4-methylbenzyl)-N-(3-(4,4,5,5-tetramethyl-1,3,2-dioxaborolan-2-yl)phenyl) acetamide]	low μM cytotoxic activity	higher cytotoxic than the other eight compounds	dose-dependent reduction in cell viability	5 to 10 µM	above 1 μM	above 3 μM	5 to 10 µM	5 to 10 µM	above 3 M	5 to 10 µM

Source: US20260183322A1, “BORON-BASED ENOLASE LIGANDS AND METHODS OF USE FOR TREATMENT OF CANCER” (LOMA LINDA UNIVERSITY, priority 2022, published 2026)
